Patent publication US20100203531A1, “PREDICTING RESPONSIVENESS TO TEMOZOLOMIDE” (priority 2007, published 2010)

Key:
Type in all cases: in vivo, human
GBM16 xenograft = test: Orthotopic intracranial xenograft survival, GBM16; details: for Survival Prolongation: median survival relative to placebo, 66 mg/kg oral for 5 days (Table 3), 66 mg/kg
Protocol: (§1) In vivo sensitivity of GBM lines to TMZ: To address whether MGMT methylation or polypeptide expression status are predictive of TMZ responsiveness, the effects of TMZ therapy on survival were evaluated in the panel of xenografts using an orthotopic therapy model. Mice with established intracranial xenografts were treated with 66 mg/kg TMZ or placebo daily for 5 days by oral gavage. This TMZ dosing regimen provides the equivalent dose-exposure to TMZ as the standard adjuvant TMZ dosing regimen for GBM patients of 200 mg/m^2×5 days. All mice were followed until reaching a moribund state, and the relative prolongation of survival following TMZ treatment was calculated for each line relative to placebo treatment (Table 1). […] Further analysis of the relationship between TMZ responsiveness and MGMT methylation status in 17 xenograft lines was conducted by comparing the distribution of median survival prolongation results for methylation-positive and methylation-negative groups of xenografts. From this analysis, MGMT methylation was modestly associated with increased TMZ sensitivity (FIG. 2, p=0.039, two-sample rank sum test). In a similar analysis of MGMT polypeptide expression levels, high levels of MGMT polypeptide expression were invariably associated with relative TMZ resistance, and the absence of MGMT polypeptide expression was associated with significant TMZ sensitivity (r=−0.73, p=0.005). […] While p53, PTEN and EGFR function have been linked to TMZ sensitivity in some models, no correlation between genetic alterations of these genes and TMZ responsiveness was observed.
(§2) Orthotopic model: Therapy evaluations were conducted using an orthotopic tumor model as described elsewhere (Sarkaria et al., Clin Cancer Res, 12:2264-2271 (2006), Giannini et al., Neuro-Oncology, 7:164-176, (2005)). Athymic nude mice (NCI, Frederick, Md.) with established intracranial tumors were randomized into groups of 8 to 10 mice each and treatment was initiated 2 weeks before mice were expected to become moribund. TMZ was purchased from the Mayo Clinic Pharmacy, suspended in Ora-plus (Paddock Laboratories, Minneapolis. MN), and administered by oral gavage at 66 mg/kg for 5 days. Mice were observed daily and euthanized when moribund.
(§3) Statistical analysis: Survival distributions were estimated using the Kaplan-Meier method. The log rank test was used to compare survival across treatment groups. All GBM experiments were pooled and Classification and Regression Tree analysis (CART) was used to identify which CpG sites in the MS-PCR assay (CpG sites 78-82, 86-89) were predictive of overall survival in TMZ treated mice. The two-sample rank sum test was used to compare relative differences in survival relative to MGMT MS-PCR status or CpG89 methylation status. Spearman's correlation coefficient was used to assess the association of relative median survival and protein expression levels of MGMT relative to 13-actin.

GBM12 xenograft = test: Orthotopic intracranial xenograft survival, GBM12
Protocol: as §1
as §2, with “MN), and administered by oral gavage at 66 mg/kg for 5 days.” left out
as §3

GBM14 xenograft = test: Orthotopic intracranial xenograft survival, GBM14
Protocol: as §1
as §2, with “MN), and administered by oral gavage at 66 mg/kg for 5 days.” left out
as §3

GBM28 / GS28 xenograft = test: Orthotopic intracranial xenograft survival, GBM28 (GS28)
Protocol: as §1, §2
as §3, with “Spearman's correlation coefficient was used to assess the association of relative median survival and protein expression levels of MGMT relative to 13-actin.” left out

Question: `Cn1nnc2c(C(N)=O)ncn2c1=O` [TMZ, Temozolomide] was tested. Which “Survival Prolongation” value (GBM16 xenograft; GBM16) did it give?
Answer: 579%

Question: What about the “Survival Prolongation” value (GBM16 xenograft; GBM16, listed as Temozolomide) of the same compound?
Answer: 579%

Question: And the Survival benefit (GBM16 xenograft; GBM16, prolongation of median survival relative to placebo, TMZ 66 mg/kg oral x5 days)?
Answer: 579%

Question: What about the TMZ median survival (GBM16 xenograft; GBM16 intracranial xenograft, nude mice, TMZ 66 mg/kg oral daily x5 days) of the same compound?
Answer: 300

Question: And the Temozolomide median survival (GBM16 xenograft; GBM16 intracranial, athymic nude mice, 66 mg/kg oral gavage for 5 days (Table 3))?
Answer: 326

Question: What about the “Survival Prolongation” value (GBM12 xenograft; GBM12, median survival relative to placebo, 66 mg/kg oral for 5 days (Table 3)) of the same compound?
Answer: 253%

Question: What about the Survival benefit (GBM12 xenograft; GBM12, prolongation of median survival relative to placebo, TMZ 66 mg/kg oral x5 days) of the same compound?
Answer: 253%

Question: And the Survival benefit (GBM12 xenograft; GBM12 generation 10, TMZ 120 mg/kg for 5 days, intracranial)?
Answer: 268%

Question: And the Survival benefit (GBM12 xenograft; GBM12 generation 30, TMZ 66 mg/kg for 5 days, intracranial)?
Answer: 164%

Question: What about the TMZ median survival (GBM12 xenograft; GBM12 intracranial xenograft, nude mice, TMZ 66 mg/kg oral daily x5 days) of the same compound?
Answer: 53

Question: What about the Temozolomide median survival (GBM12 xenograft; GBM12 intracranial, athymic nude mice, 66 mg/kg oral gavage for 5 days (Table 3)) of the same compound?
Answer: 53

Question: And the “Survival Prolongation” value (GBM14 xenograft; GBM14, median survival relative to placebo, 66 mg/kg oral for 5 days (Table 3))?
Answer: 558%

Question: And the Survival benefit (GBM14 xenograft; GBM14, prolongation of median survival relative to placebo, TMZ 66 mg/kg oral x5 days)?
Answer: 558%

Question: What about the Survival benefit (GBM14 xenograft; GBM14 generation 21, TMZ 120 mg/kg for 5 days, intracranial) of the same compound?
Answer: 148%

Question: And the Survival benefit (GBM14 xenograft; GBM14 generation 33, TMZ 66 mg/kg for 5 days, intracranial)?
Answer: 421%

Question: What about the TMZ median survival (GBM14 xenograft; GBM14 intracranial xenograft, nude mice, TMZ 66 mg/kg oral daily x5 days) of the same compound?
Answer: 154

Question: And the Temozolomide median survival (GBM14 xenograft; GBM14 intracranial, athymic nude mice, 66 mg/kg oral gavage for 5 days (Table 3))?
Answer: 217

Question: What about the Survival benefit (GBM28 / GS28 xenograft; GBM28, prolongation of median survival relative to placebo, TMZ 66 mg/kg oral x5 days) of the same compound?
Answer: 70%

Question: And the TMZ median survival (GBM28 / GS28 xenograft; GBM28 intracranial xenograft, nude mice, TMZ 66 mg/kg oral daily x5 days)?
Answer: 56

Question: And the “Survival Prolongation” value (GBM28 / GS28 xenograft; GS28, median survival relative to placebo, 66 mg/kg oral for 5 days (Table 3))?
Answer: 70%

Question: And the Temozolomide median survival (GBM28 / GS28 xenograft; GS28 intracranial, athymic nude mice, 66 mg/kg oral gavage for 5 days (Table 3))?
Answer: 56
